PMC9097471, “Development of Selective Phosphatidylinositol 5-Phosphate 4-Kinase γ Inhibitors with a Non-ATP-competitive, Allosteric Binding Mode” (Journal of Medicinal Chemistry, 2022)
≈ marks a conversion by molar mass, not a printed value. Read-outs that look alike come from different tables or passages of the source.

Legend:
Kinetic solubility = format: physicochemical; conditions: PBS buffer, PBS pH 7.4
Experimental: Kinetic solubility analysis was performed by Charles River Laboratories Inc. (ADME-SOP-01). Compound in
DMSO at 10 mM was diluted to 200 µM in both DMSO and buffer (0.1 M PBS, pH 7.4, 2% DMSO final), and
an aliquot of the 200 µM DMSO solution was diluted to 10 µM, and all dilutions were equilibrated for 2 hours. […]
Compound 9 was purchased from Am binter (Amb16536894) and was determined by UPLC to have purity >95%.
All other compounds were synthesised as described below , and all tested compounds have purity >95% by UPLC

Plasma protein binding = format: in vitro ADME; conditions: Mouse plasma protein binding; read-out: mPPB (converted)
Experimental: Plasma protein binding analysis was performed by Charles River Laboratories Inc. (ADME-SOP-90). Briefly, compounds in DMSO (10 µM, 0.5% DMSO final) were added to mouse plasma and dialysed against buffer for 4 hours at 37 °C. The compound concentration in each of the plasma and buffer compartments was determined by mass spectrometry and used to calculate the percentage compound bound. […]

[1] = Liver microsomal stability; format: in vitro ADME; conditions: liver microsomes; Human liver microsomal hepatic stability; read-out: HLM t1/2
[2] = Chromatographic LogD (HPLC method); format: physicochemical; conditions: pH 7.4, read-out: mchrom log D7.4
Experimental: 5-100% gradient of MeCN in 50mM NH4OAc in H 2O adjusted to pH 7.4. […]

PI5P4Kα-WT = biological target: T1, PI5P4Kα-WT (Homo sapiens, UniProt P48426); assay: ADP-Glo inhibition assay; conditions: for PI5P4Kα pIC50: ADP-Glo
T1 sequence (P48426 1-406): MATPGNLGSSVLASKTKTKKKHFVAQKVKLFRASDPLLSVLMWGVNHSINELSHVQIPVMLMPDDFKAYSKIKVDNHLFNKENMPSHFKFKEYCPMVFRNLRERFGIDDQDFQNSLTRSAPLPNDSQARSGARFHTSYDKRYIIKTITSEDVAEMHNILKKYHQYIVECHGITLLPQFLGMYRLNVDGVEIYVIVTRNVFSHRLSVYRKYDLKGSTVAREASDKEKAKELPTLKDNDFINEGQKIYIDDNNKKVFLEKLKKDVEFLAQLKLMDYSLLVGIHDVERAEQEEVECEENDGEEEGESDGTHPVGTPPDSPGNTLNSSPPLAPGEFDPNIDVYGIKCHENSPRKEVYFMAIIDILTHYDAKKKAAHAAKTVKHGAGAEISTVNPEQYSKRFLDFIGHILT
Excerpt: (§2) To enable direct comparisons, Promega’s ADP-Glo reporter assay was developed using a mutant form of the kinase. […] To mitigate concerns about being misled by the use of the PI5P4Kγ+ construct and the possible introduction of PI5P4Kα activity into the molecules, our screening cascade included the measurement of ADP-Glo activity at PI5P4Kα-WT (and PI5P4Kβ-WT to fully understand emerging selectivity profiles).

PI5P4Kβ-WT = biological target: T2, PI5P4Kβ-WT (Homo sapiens, UniProt P78356); assay: ADP-Glo inhibition assay; conditions: for PI5P4Kβ pIC50: ADP-Glo
T2 sequence (P78356 1-416): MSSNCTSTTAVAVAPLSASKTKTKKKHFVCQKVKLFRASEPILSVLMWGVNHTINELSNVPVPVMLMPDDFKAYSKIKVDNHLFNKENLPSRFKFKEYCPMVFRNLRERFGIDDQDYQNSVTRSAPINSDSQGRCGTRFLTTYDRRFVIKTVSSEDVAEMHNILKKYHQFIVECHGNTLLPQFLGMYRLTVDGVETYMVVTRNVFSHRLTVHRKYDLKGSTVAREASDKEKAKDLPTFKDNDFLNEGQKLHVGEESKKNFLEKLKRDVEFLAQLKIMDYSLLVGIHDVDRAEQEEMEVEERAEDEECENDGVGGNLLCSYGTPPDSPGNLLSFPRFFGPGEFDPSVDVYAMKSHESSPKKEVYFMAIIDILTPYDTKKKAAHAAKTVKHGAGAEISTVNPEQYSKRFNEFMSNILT
Excerpt: as §2

PI5P4Kγ [3] = biological target: PI5P4Kγ; parameters: method as in Rosenthal 2011, Davis 2011, Karaman 2008, Klaeger 2017; conditions: public kinase panel data; ref Rosenthal 2011, Davis 2011, Karaman 2008, Klaeger 2017; cited from earlier work
PI5P4Kγ+ = biological target: T3, PI5P4Kγ+ (Homo sapiens, UniProt Q8TBX8, D138G/D197E/E133P/E135D/E153T/E196G/G136S/G139A/N195G/S132L/S134N); assay: ADP-Glo inhibition assay; format: biochemical; conditions: for IC50: ADP-Glo
T3 construct: GST (N, cleaved yes); made in house; host or cells: E. coli BL21(DE3), pGEX6P
T3 sequence (Q8TBX8 with tags, fused parts or gaps INS131LPN/S132D/E133S/S134Q/E135A/G136R/D138G/G139A/E153T/N195G/E196G/D197E): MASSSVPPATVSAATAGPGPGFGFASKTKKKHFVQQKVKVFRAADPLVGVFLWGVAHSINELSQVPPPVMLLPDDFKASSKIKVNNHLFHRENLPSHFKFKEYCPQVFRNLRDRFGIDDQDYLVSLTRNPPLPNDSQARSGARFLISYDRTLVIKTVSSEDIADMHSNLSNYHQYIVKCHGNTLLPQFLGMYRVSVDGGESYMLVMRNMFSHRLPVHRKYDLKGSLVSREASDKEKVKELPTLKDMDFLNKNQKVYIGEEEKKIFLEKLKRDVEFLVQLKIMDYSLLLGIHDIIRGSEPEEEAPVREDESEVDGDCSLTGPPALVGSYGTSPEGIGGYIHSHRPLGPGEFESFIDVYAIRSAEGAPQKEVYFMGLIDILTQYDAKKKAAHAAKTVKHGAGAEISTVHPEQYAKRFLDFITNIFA
Experimental: Recombinant mutant PI5P4Kγ+ was prepared essentially as described previously.[25] […] Cultures were induced with 0.4 mM IPTG and probe sonicated in the presence of protease inhibitors. The GST fusion protein of PI5P4Kγ+ was harvested by binding to glutathione sepharose beads (Cytiva) and cleaved in situ with 50U of PreScission protease (Cytiva) for 4 h at 4 °C. The cleaved protein was further purified by size-exclusion chromatography (AKTA Pure, Cytiva). The protein purity was confirmed by sodium dodecyl sulphate–polyacrylamide gel electrophoresis, and the concentration was determined by colorimetric assay (Bio-Rad).
(§1) Statistical analysis was performed using nonparametric testing in Prism 8 (GraphPad). Activity pIC50 values and in vivo binding pEC50 values were estimated using a 4-parameter fit (Dotmatics).

PI5P4Kα [4] = conditions: bioluminescence assay; cited from earlier work
Caco-2 cell permeability = format: in vitro ADME; conditions: human; for Papp A→B at 1 h, 10 µM: Caco-2, apical-to-basolateral
Experimental: Permeability: bi-directional Caco-2 cell permeability was performed by Charles River Laboratories Inc. (ADME-SOP-49). Briefly, compounds were administered at 10 µM (1% DMSO final) to the apical or basolateral side of a polarised Caco-2 cell monolayer, then incubated at 37 °C for 60 minutes before appearance on the opposite side of the monolayer was determined by mass spectrometry. The efflux ratio (ER) is calculated from the ratio of B-A […]

PI5P4Kγ-WT [5] = biological target: T4, PI5P4Kγ-WT (Homo sapiens, UniProt Q8TBX8); assay: Thermal shift assay; conditions: read-out: ΔTm PI5P4Kγ WT, thermal shift, compound 63 μM
T4 sequence (Q8TBX8 1-421): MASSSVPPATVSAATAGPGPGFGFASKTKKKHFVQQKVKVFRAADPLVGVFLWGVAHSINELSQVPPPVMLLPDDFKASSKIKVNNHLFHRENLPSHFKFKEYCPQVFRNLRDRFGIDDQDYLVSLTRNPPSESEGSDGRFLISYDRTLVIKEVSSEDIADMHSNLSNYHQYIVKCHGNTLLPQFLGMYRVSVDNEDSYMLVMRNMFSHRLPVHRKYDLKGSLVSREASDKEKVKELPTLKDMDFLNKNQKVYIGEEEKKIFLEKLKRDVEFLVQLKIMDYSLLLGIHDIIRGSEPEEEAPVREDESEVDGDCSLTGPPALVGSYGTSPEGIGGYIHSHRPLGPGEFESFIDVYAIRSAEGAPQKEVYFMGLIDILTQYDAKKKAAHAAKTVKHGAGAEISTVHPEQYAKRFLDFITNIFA

PI5P4Kγ-WT [6] = biological target: T4, PI5P4Kγ-WT; assay: InCell Pulse cellular target engagement (thermal stabilisation) in HEK293 cells; format: cell-based; conditions: InCell Pulse, new data
Experimental: The binding of compounds to PI5P4Kγ in intact cells was assessed using an InCell Pulse thermal stabilisation assay (DiscoverX). […] The plate was then incubated for 60 min in the dark prior to luminescence reading using a Pherastar FSX plate reader (BMG Labtech).
as §1

PI5P4Kβ = biological target: T5, PI5P4Kβ (Homo sapiens, UniProt P78356); parameters: method as in ref 23 (a number printed in a supplementary file, which may have a reference list of its own: not looked up in the article's list); conditions: KINOMEscan @ 10 μM; cited from earlier work
T5 sequence (P78356 1-416): T2 sequence (P78356 1-416)

PI5P4Kα [7] = tested on: PI5P4Kα; parameters: method as in ref 23 (a number printed in a supplementary file, which may have a reference list of its own: not looked up in the article's list); conditions: KINOMEscan @ 10 μM; cited from earlier work
PI5P4Kγ [8] = tested on: PI5P4Kγ; parameters: method as in ref 30 (1), ref 23 (2); conditions: 32P-ATP/PI5P incorporation; ref 30 (1), ref 23 (2); cited from earlier work
[9] = mutant PI5P4Kγ+ construct, read-out: PI5P4Kγ+ pIC50 (converted)
[10] = new data, read-out: PI5P4Kγ+ IC50

FC(F)(F)c1ccccc1-c1nc(NCc2ccccn2)c2cccnc2n1 [Compound 38]
solubility at 2 h (Kinetic solubility): 6 µM (≈ 2.29 µg/mL)
fraction unbound at 4 h, 10 µM (Plasma protein binding): 0.01
half-life at 1 µM [1]: 100 min
chromatographic logD [2]: 3.2
PI5P4Kα pIC50 (PI5P4Kα-WT): <4.3
PI5P4Kβ pIC50 (PI5P4Kβ-WT): <4.6

Cc1nc(CNc2ncnc3ccc(-c4ccc5c(c4)OCO5)cc23)cs1 [ML197, reference compound]
PI5P4Kγ pKD (PI5P4Kγ [3]): 6.6
IC50 (PI5P4Kγ+; [9]): 3.98 µM
IC50 (PI5P4Kα-WT): > 50.1 µM

Cc1ccc(-n2ccc3c(Nc4cccc(NC(=O)c5ccc(NC(=O)/C=C/CN(C)C)cc5)c4)ncnc32)cc1 [Compound 4]
IC50 (PI5P4Kα [4]): 1.3 µM

CC(C)c1ccccc1-c1nc(NCc2ccccn2)c2ccccc2n1 [Compound 22]
solubility at 2 h (Kinetic solubility): < 5 µM
fraction unbound at 4 h, 10 µM (Plasma protein binding): < 0.01
half-life at 1 µM [1]: 37 min
chromatographic logD [2]: 5.7
PI5P4Kα pIC50 (PI5P4Kα-WT): <4.3
PI5P4Kβ pIC50 (PI5P4Kβ-WT): <4.6

FC(F)(F)c1ccccc1-c1nc(NCc2ccccn2)c2ccccc2n1 [Compound 14]
solubility at 2 h (Kinetic solubility): 9 µM (≈ 3.42 µg/mL)
Papp A→B at 1 h, 10 µM (Caco-2 cell permeability): 85 ×10⁻⁶ cm/s
fraction unbound at 4 h, 10 µM (Plasma protein binding): < 0.01
half-life at 1 µM [1]: 31 min
IC50 (PI5P4Kγ+; [9]): 3.16 µM
ΔTm at 63 µM (PI5P4Kγ-WT [5]): 6.3 °C
PI5P4Kα pIC50 (PI5P4Kα-WT): <4.3
PI5P4Kβ pIC50 (PI5P4Kβ-WT): <4.6

Cc1ccccc1-c1nc(NCc2cccs2)c2ccccc2n1 [Compound 7]
IC50 (PI5P4Kγ+; [9]): > 31.6 µM
ΔTm at 63 µM (PI5P4Kγ-WT [5]): 2.7 °C
PI5P4Kα pIC50 (PI5P4Kα-WT): <4.3
PI5P4Kβ pIC50 (PI5P4Kβ-WT): <4.6

Cc1cnc(-c2ccccc2C(F)(F)F)nc1NCc1ccccn1 [Compound 35]
solubility at 2 h (Kinetic solubility): 113 µM (≈ 38.9 µg/mL)
Papp A→B at 1 h, 10 µM (Caco-2 cell permeability): 106 ×10⁻⁶ cm/s
efflux ratio at 1 h, 10 µM (Caco-2 cell permeability; Caco-2 efflux ratio (B-A/A-B), read-out: ER): 0.5
fraction unbound at 4 h, 10 µM (Plasma protein binding): 0.03
half-life at 1 µM [1]: 41 min
IC50 (PI5P4Kγ+; [9]): 10 µM
PI5P4Kγ+ LE (PI5P4Kγ+; ligand efficiency from PI5P4Kγ+ pIC50): 0.28
ΔTm at 63 µM (PI5P4Kγ-WT [5]): 3.9 °C
chromatographic logD [2]: 4.2
PI5P4Kα pIC50 (PI5P4Kα-WT): <4.3
PI5P4Kβ pIC50 (PI5P4Kβ-WT): <4.6

Cn1nnnc1Sc1ncnc2scc(-c3cccc(S(C)(=O)=O)c3)c12 [Compound 2, NCT-504]
IC50 (PI5P4Kγ-WT [6]): > 50 µM
PI5P4Kβ % inh (PI5P4Kβ): <65% inh @ 10 uM (KINONMEscan)
IC50 (PI5P4Kγ+; [10]): > 50 µM
PI5P4Kα % inh (PI5P4Kα [7]): <35% inh @ 10 uM (KINONMEscan)
IC50 (PI5P4Kα-WT): 2 µM
IC50 (PI5P4Kβ-WT): > 25 µM
IC50 (PI5P4Kγ [8]): 16 µM

Cc1nc(CN(C)c2ncnc3ccc(-c4ccc5c(c4)OCO5)cc23)cs1 [ML106, reference compound]
PI5P4Kγ pKD (PI5P4Kγ [3]): 6.4
IC50 (PI5P4Kγ+; [9]): 10 µM
IC50 (PI5P4Kα-WT): > 50.1 µM

CN(C)C/C=C/C(=O)Nc1ccc(C(=O)Nc2cccc(Nc3cc(-c4c[nH]c5ccccc45)ncn3)c2)cc1 [Compound 3, THZ-P1-2]
IC50 (PI5P4Kα [4]): 0.95 µM
IC50 (PI5P4Kγ-WT [6]): 1.3 µM
IC50 (PI5P4Kγ+; [10]): 0.13 µM

FC(F)(F)c1ccccc1-c1nc(NCC2CCCCC2)c2ccccc2n1 [Compound 10]
IC50 (PI5P4Kγ+; [9]): > 50.1 µM
ΔTm at 63 µM (PI5P4Kγ-WT [5]): -0.8 °C
PI5P4Kα pIC50 (PI5P4Kα-WT): <4.3
PI5P4Kβ pIC50 (PI5P4Kβ-WT): <4.6

c1ccc(-c2nc(NCc3cccs3)c3ccccc3n2)cc1 [Compound 6]
IC50 (PI5P4Kγ+; [9]): > 50.1 µM
ΔTm at 63 µM (PI5P4Kγ-WT [5]): -1.1 °C
PI5P4Kα pIC50 (PI5P4Kα-WT): <4.3
PI5P4Kβ pIC50 (PI5P4Kβ-WT): <4.6

CC(=O)c1c(C)c2cnc(Nc3ccc(N4CCNCC4)cn3)nc2n(C2CCCC2)c1=O [Palbociclib, reference compound]
PI5P4Kγ pKD (PI5P4Kγ [3]): 5.8
IC50 (PI5P4Kβ-WT): > 25.1 µM
